Reference: patent US8921555B2, “Substituted-1,3,8-triazaspiro[4.5]decane-2,4-diones” (Merck Sharp & Dohme Corp., priority 2009, dated 2014)
Like-named read-outs stand apart in the source and are kept apart here.

Molecular target: T1, HIF-PHD2 (Homo sapiens, UniProt Q9GZT9)
T1 construct: FLAG-tagged full length PHD2 expressed in and purified from baculovirus-infected Sf9 cells; FLAG; made in house; host or cells: baculovirus-infected Sf9 cells
Assay: Assay for HIF-PHD2 Catalytic Activity (PHD2 Binding Activity)
Type: biochemical

[1] = read-out: PHD2 Binding Activity IC50

T1 sequence (Q9GZT9 whole entry): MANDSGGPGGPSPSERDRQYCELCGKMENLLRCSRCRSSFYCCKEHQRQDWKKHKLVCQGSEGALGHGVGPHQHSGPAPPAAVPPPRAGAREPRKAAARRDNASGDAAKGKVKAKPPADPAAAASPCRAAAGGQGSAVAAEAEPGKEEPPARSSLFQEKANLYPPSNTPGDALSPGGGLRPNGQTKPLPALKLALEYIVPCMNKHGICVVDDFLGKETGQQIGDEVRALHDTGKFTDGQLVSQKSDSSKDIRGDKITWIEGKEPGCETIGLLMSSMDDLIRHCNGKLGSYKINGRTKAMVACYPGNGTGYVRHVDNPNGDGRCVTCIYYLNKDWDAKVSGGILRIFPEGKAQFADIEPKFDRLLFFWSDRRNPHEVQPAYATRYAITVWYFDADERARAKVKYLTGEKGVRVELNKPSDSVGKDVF

SMILES | IC50 [nM] | IC50 [1] [nM]
Cc1cncc(N2C(=O)N(c3ccc(-c4ccc(C(=O)O)cc4)cc3)C(=O)C23CCN(Cc2ncccc2C)CC3)n1 [Compound 7-7, 4′-{1-(6-methylpyrazin-2-yl)-8-[(3-methylpyridin-2-yl)methyl]-2,4-dioxo-1,3,8-triazaspiro[4.5]dec-3-yl}biphenyl-4-carboxylic acid] | 0.5 to 20 | 
CC(C)(C)OC(=O)CN1CCC2(CC1)C(=O)N(c1ccc(-c3ccccc3)cc1)C(=O)N2c1cnccn1 [Compound 2-2, tert-butyl (3-biphenyl-4-yl-2,4-dioxo-1-pyrazin-2-yl-1,3,8-triazaspiro[4.5]dec-8-yl)acetate] | > 50 | 
COc1cc(N2C(=O)N(c3ccc(-c4ccc(C(=O)O)cc4F)nc3)C(=O)C23CCN(Cc2ncccc2C)CC3)ncn1 [Compound 12-1, 3-fluoro-4-(5-{1-(6-methoxypyrimidine-4-yl)-8-[(3-methylpyridin-2-yl)methyl]-2,4-dioxo-1,3,8-triazaspiro[4.5]dec-3-yl}pyridin-2-yl)-3-benzoic acid] | 0.5 to 20 | 
O=C(O)CCn1ccnc1CN1CCC2(CC1)C(=O)N(c1ccc(-c3ccccc3)cc1)C(=O)N2c1nccc(O)n1 [Compound 1-24, 3-(2-{[3-biphenyl-4-yl-1-(4-hydroxypyrimidin-2-yl)-2,4-dioxo-1,3,8-triazaspiro[4.5]dec-8-yl]methyl}-1H-imidazol-1-yl)propanoic acid] | 0.5 to 20 | 
Cc1cccnc1CN1CCC2(CC1)C(=O)N(c1ccc(-c3ccccc3)cc1)C(=O)N2CC(=O)O [Compound 2-7] |  | 0.5 to 20
COC(=O)c1ccc(-c2ccc(N3C(=O)N(c4ccncn4)C4(CCN(Cc5ncccc5C)CC4)C3=O)cc2)c(C)c1 [Compound 8-2, methyl 2-methyl-4′-{8-[(3-methylpyridin-2-yl)methyl]-2,4-dioxo-1-pyrimidin-4-yl-1,3,8-triazaspiro[4.5]dec-3-yl}biphenyl-4-carboxylate] | 0.5 to 20 | 
COc1ccnc(N2C(=O)N(c3ccc(-c4ccccc4)cc3)C(=O)C23CCN(Cc2ncccc2C#N)CC3)n1 [Compound 1-40, 2-{[3-biphenyl-4-yl-1-(4-methoxypyrimidin-2-yl)-2,4-dioxo-1,3,8-triazaspiro[4.5]dec-8-yl]methyl}nicotinonitrile] | > 50 | 
COc1ccnc(N2C(=O)N(c3ccc(-c4ccc(C(=O)O)cc4C)nc3)C(=O)C23CCN(Cc2ncccc2C)CC3)n1 [Compound 11-2, 4-(5-{1-(4-methoxypyrimidin-2-yl)-8-[(3-methylpyridin-2-yl)methyl]-2,4-dioxo-1,3,8-triazaspiro[4.5]dec-3-yl}-pyridin-2-yl)-3-methylbenzoic acid] | 0.5 to 20 | 
Cc1cccnc1CN1CCC2(CC1)C(=O)N(c1ccc(-c3nnn[nH]3)cc1)C(=O)N2c1nccc(O)n1 [Compound 1-16, 1-(4-hydroxypyrimidin-2-yl)-8-[(3-methylpyridin-2-yl)methyl]-3-[4-(1H-tetrazol-5-yl)phenyl]-1,3,8-triazaspiro[4.5]decane-2,4-dione] | > 50 | 
COc1ccnc(N2C(=O)N(c3ccc(-c4ccccc4)cc3)C(=O)C23CCN(Cc2nc[nH]c2C)CC3)n1 [Compound 1-49, 3-biphenyl-4-yl-1-(4-methoxypyrimidin-2-yl)-8-[(5-methyl-1-H-imidazol-4-yl)methyl]-1,3,8-triazaspiro[4.5]decane-2,4-dione] | 0.5 to 20 | 
Cc1cccnc1CN1CCC2(C(=O)N(c3ccc(-c4ccccc4)cc3)C(=O)N2c2cc(O)ncn2)C(C(=O)O)C1 (stereo not drawn) [Compound 3-7, 3-biphenyl-4-yl-1-(6-hydroxypyrimidin-4-yl)-8-[(3-methylpyridin-2-yl)methyl]-2,4-dioxo-1,3,8-triazaspiro[4.5]decane-6-carboxylic acid] | 0.5 to 20 | 
Cc1cccnc1CN1CCC2(CC1)C(=O)N(c1ccc(-c3ccccc3)cc1)C(=O)N2c1ccncn1 [Compound 1-68, 3-biphenyl-4-yl-8-[(3-methylpyridin-2-yl)methyl]-1-pyrimidin-4-yl-1,3,8-triazaspiro[4.5]decane-2,4-dione] | 0.5 to 20 | 
COc1ccnc(CN2CCC3(CC2)C(=O)N(c2ccc(-c4ccc(C(=O)O)cc4)nc2)C(=O)N3c2cc(OC)ncn2)c1 [Compound 10-3, 4-(5-{8-[(4-methoxypyridin-2-yl)methyl]-1-(6-methoxypyrimidin-4-yl)-2,4-dioxo-1,3,8-triazaspiro[4.5]dec-3-yl}-pyridin-2-yl) benzoic acid] | 0.5 to 20 | 
Cc1cccnc1CN1CCC2(CC1)C(=O)N(c1ccc(-c3ccccc3)cc1)C(=O)N2C [Compound 2-1, 3-biphenyl-4-yl-1-methyl-8-[(3-methylpyridin-2-yl)methyl]-1,3,8-triazaspiro[4.5]decane-2,4-dione] |  | 0.5 to 20
CCCCOC(=O)c1[nH]cnc1CN1CCC2(CC1)C(=O)N(c1ccc(-c3ccccc3)cc1)C(=O)N2c1nccc(O)n1 [Compound 1-46, Butyl 4-{[3-biphenyl-4-yl-1-(4-hydroxypyrimidin-2-yl)-2,4-dioxo-1,3,8-triazaspiro[4.5]dec-8-yl]methyl}-1-H-imidazole-5-carboxylate] | 20 to 50 | 
Cc1cccnc1CN1CCC2(CC1)C(=O)N(c1ccc(-c3ccccc3)cc1)C(=O)N2c1ccncc1 [Compound 1-8, 3-biphenyl-4-yl-8-[(3-methylpyridin-2-yl)methyl]-1-pyridin-4-yl-1,3,8-triazaspiro[4.5]decane-2,4-dione] | 20 to 50 | 
O=C1N(c2ccc(-c3ccccc3)cc2)C(=O)C2(CCN(Cc3ncccc3Br)CC2)N1c1nccc(O)n1 [Compound 1-31, 3-biphenyl-4-yl-8-[(3-bromopyridin-2-yl)methyl]-1-(4-hydroxypyrimidin-2-yl)-1,3,8-triazaspiro[4.5]decane-2,4-dione] | > 50 | 
Cc1cccnc1CN1CCC2(CC1)C(=O)N(c1ccc(-c3ccccc3)cc1)C(=O)N2c1ccnc(O)c1 [Compound 1-58, 3-biphenyl-4-yl-1-(2-hydroxypyridin-4-yl)-8-[(3-methylpyridin-2-yl)methyl]-1,3,8-triazaspiro[4.5]decane-2,4-dione] | 0.5 to 20 | 
Cc1cccnc1CN1CCC2(CC1)C(=O)N(c1ccc(-c3ccccc3)cc1)C(=O)N2c1cccc(F)n1 [Compound 1-6, 3-biphenyl-4-yl-1-(6-fluoropyridin-2-yl)-8-[(3-methylpyridin-2-yl)methyl]-1,3,8-triazaspiro[4.5]decane-2,4-dione] | 0.5 to 20 | 
Cc1cccnc1CN1CCC2(CC1)C(=O)N(c1ccc(-c3ccccc3)cc1)C(=O)N2c1cccc(C(=O)O)n1 [Compound 1-14, 6-{3-biphenyl-4-yl-8-[(3-methylpyridin-2-yl)methyl]-2,4-dioxo-1,3,8-triazaspiro[4.5]dec-1-yl}pyridine-2-carboxylic acid] | 0.5 to 20 | 
COc1cc(OC)nc(N2C(=O)N(c3ccc(-c4ccccc4)cc3)C(=O)C23CCN(Cc2ncccc2C)CC3)n1 [Compound 1-57, 3-biphenyl-4-yl-1-(4,6-dimethoxypyrimidin-2-yl)-8-[(3-methylpyridin-2-yl)methyl]-1,3,8-triazaspiro[4.5]decane-2,4-dione] | 0.5 to 20 | 
Cc1[nH]cnc1CN1CCC2(CC1)C(=O)N(c1ccc(-c3ccccc3)cc1)C(=O)N2c1cc(O)ncn1 [Compound 1-53, 3-biphenyl-4-yl-1-(6-hydroxypyrimidin-4-yl)-8-[(5-methyl-1-H-imidazol-4-yl)methyl]-1,3,8-triazaspiro[4.5]decane-2,4-dione] | 0.5 to 20 | 
O=C(O)c1[nH]cnc1CN1CCC2(CC1)C(=O)N(c1ccc(-c3ccccc3)cc1)C(=O)N2c1ncccn1 [Compound 1-64, 4-[(3-biphenyl-4-yl-2,4-dioxo-1-pyrimidin-2-yl-1,3,8-triazaspiro[4.5]dec-8-yl)methyl]-1-H-imidazole-5-carboxylic acid] | 0.5 to 20 | 
COc1ccnc(N2C(=O)N(c3ccc(-c4nnn[nH]4)cc3)C(=O)C23CCN(Cc2ncccc2C)CC3)n1 [Compound 1-15, 1-(4-methoxypyrimidin-2-yl)-8-[(3-methylpyridin-2-yl)methyl]-3-[4-(1H-tetrazol-5-yl)phenyl]-1,3,8-triazaspiro[4.5]decane-2,4-dione] | 20 to 50 | 
Cc1cccnc1CN1CCC2(CC1)C(=O)N(c1ccc(-c3cccc(C(=O)O)c3)cc1)C(=O)N2c1ncccn1 [Compound 1-66, 4′-{8-[(3-methylpyridin-2-yl)methyl]-2,4-dioxo-1-pyrimidin-2-yl-1,3,8-triazaspiro[4.5]dec-3-yl}biphenyl-3-carboxylic acid] | 0.5 to 20 | 
COc1ccnc(N2C(=O)N(c3ccc(-c4ccccc4)cc3)C(=O)C23CCN(Cc2nccn2CC(=O)OC(C)(C)C)CC3)n1 [Compound 1-19, tert-butyl (2-{[3-biphenyl-4-yl-1-(4-methoxypyrimidin-2-yl)-2,4-dioxo-1,3,8-triazaspiro[4,5]dec-8-yl]methyl}-1H-imidazol-1-yl)acetate] | > 50 | 
Cc1cccnc1CN1CCC2(CC1)C(=O)N(c1ccc(-c3ccccc3)cc1)C(=O)N2C(=O)CCC(=O)O [Compound 5-7, 4-{3-biphenyl-4-yl-8-[(3-methylpyridin-2-yl)methyl]-2,4-dioxo-1,3,8-triazaspiro[4.5]dec-1-yl}-4-oxobutanoic acid] |  | 0.5 to 20
COc1ccnc(N2C(=O)N(c3ccc(-c4ccccc4)cc3)C(=O)C23CCN(Cc2nccn2CC(=O)O)CC3)n1 [Compound 1-21, (2-{[3-biphenyl-4-yl-1-(4-methoxypyrimidin-2-yl)-2,4-dioxo-1,3,8-triazaspiro[4.5]dec-8-yl]methyl}-1H-imidazol-1-yl)acetic acid] | 0.5 to 20 | 
COc1ccnc(N2C(=O)N(c3ccc(-c4ccccc4)cc3)C(=O)C23CCN(Cc2ncccc2-c2nnn[nH]2)CC3)n1 [Compound 1-41, 3-biphenyl-4-yl-1-(4-methoxypyrimidin-2-yl)-8-{[3-(1H-tetrazol-5-yl)pyridin-2-yl]methyl}-1,3,8-triazaspiro[4.5]decane-2,4-dione] | > 50 | 
O=C(O)CN1CCC2(CC1)NC(=O)N(c1ccc(-c3ccccc3)cc1)C2=O [Compound 4-1, (3-biphenyl-4-yl-2,4-dioxo-1,3,8-triazaspiro[4.5]dec-8-yl)acetic acid] |  | > 50
